# Results published in patent publication US8772237B2, “Compositions and methods for counteracting effects of reactive oxygen species and free radicals” (Ischemix, Inc., priority 1999, dated 2014).
# Ends that are not written are not given here. * marks the point of attachment. Palmitoyl = CCCCCCCCCCCCCCCC(=O)*; Gga = not defined here
# Experiments:
# [1] = tested on: superoxide dismutase (SOD) protein; experiment: Western immunoblot of SOD protein in rat brain primary cortical cultures; format: cell-based; conditions: for SOD: 5 hours at 37° C.
# Protocol: Primary cortical cultures were obtained by growing newborn rat brain cortical cells in Delbecco's modified Eagle medium supplemented with 25 μg/ml of gentamycin and 10% fetal calf serum. The cells were isolated from the E-21 cortex of rat brain, plated at a density of 1×10^5 per ml and grown to confluence within four to five days in an atmosphere containing air and 5% CO2 at 37° C. as described in Cornell-Bell et al., Science, 247: 470-473 (1990) and Cell Calcium, 12: 185-204 (1991). Cultures were grown in 20 ml flasks as a monolayer and then exposed to various concentrations of peptides for studies of the effects of peptides on upregulation of genes for SOD and CAT and on the transmigration of transcription factor AP-1 to cell nuclei. […]
# (§1) Tissue culture experiments were carried out using primary cultures of rat brain cortical cells as previously described above in Example 2. Primary cultures from embryonic rat brain isolated at E-21 (21 day embryos) and incubated for five hours with various doses: 1, 10, 100 ng/ml of CMX-99672. Cytoplasmic proteins were isolated and analyzed for upregulation of SOD and CAT by Western immunoblots as described above. […] The Western blot was scanned to quantify the fold-increase in SOD production in cell cultures treated with the CMX-99672 peptide compound.
# Representative peptide compounds were tested at various doses and compared for their ability to upregulate expression of genes for SOD and/or CAT in rat primary cortical cultures basically as described above. Cultures were incubated with a peptide compound for 5 hours at 37° C. Cytoplasmic protein fractions were prepared as described above. Cytoplasmic proteins were separated by gel electrophoresis and analyzed by Western immunoblots using antisera to SOD and CAT, respectively (Rockland, Inc., Gilbertsville, Pa.). […]
# [2] = tested on: Superoxide Dismutase (SOD); experiment: In vivo upregulation of SOD in rat organs (Western immunoblot); design: species or system Sprague-Dawley rats; conditions: for SOD Activity: 6-hour treatment, 10 mg/kg i.v.
# Protocol: In vivo experiments were carried out in Sprague-Dawley rats (300-325 g) with solutions of CMX-1152 or CMX-99672. The animals were injected intravenously (iv) via the tail vein with a peptide compound. […] The animals were sacrificed by decapitation at 6, 12, 24, 48, and 72 hours post injection and dissected to isolate brain, liver, heart, kidney, lung organs, which were frozen at −70° C. for subsequent analysis. In addition, 2 ml samples of whole blood were taken from each animal. Half (1 ml) of each sample was centrifuged to remove nuclei and cell membranes to yield plasma. The remaining half was stored frozen as whole blood at −70° C.
# Each tissue was thawed and homogenized in a Down's homogenizer using ten volumes of homogenizer buffer (see, Adams et al., General Cellular Biochemistry, 77: 221-233 (2000); buffer as described in Adams et al., J. Leukoc. Biol., 62: 865-875 (1967)) to obtain a crude cytoplasmic fraction. The tissue homogenates were centrifuged (14,000×g for 5 minutes at 4° C.) to yield the supernatant purified cytoplasmic protein fractions as described in Adams et al. (J. Cell. Biochem., 77: 221-233 (2000)). A 10 μg sample of each protein fraction was then separated by SDS polyacrylamide gel electrophoresis (SDS-PAGE) and analyzed for SOD and CAT content by Western blot assay.
# Control for measurement of unstimulated levels of SOD and CAT were obtained from two vehicle only (i.e., no peptide compound) injected rats that were sacrificed at 24 and 72 hours post injection. Both had essentially the same unstimulated levels of SOD and CAT. Standard quantities of each cytoplasmic fractions (10 μg) were loaded on a lane of a gel for electrophoretic separation and Western immunoblot analysis (Adams et al., J. Cell. Biochem., 77: 221-233 (2000)). The stained gels were photographed and scanned by laser densitometry to quantify intensities in comparison to enzyme levels for control vehicle treated rats.
# catalase (CAT) protein = experiment: Western immunoblot of CAT protein in rat primary cortical cultures; format: cell-based; conditions: for CAT: 5 hours at 37° C.
# Protocol: as §1
# Representative peptide compounds were tested at various doses and compared for their ability to upregulate expression of genes for SOD and/or CAT in rat primary cortical cultures basically as described above. Cultures were incubated with a peptide compound for 5 hours at 37° C. Cytoplasmic protein fractions were prepared as described above. Cytoplasmic proteins were separated by gel electrophoresis and analyzed by Western immunoblots using antisera to SOD and CAT, respectively (Rockland, Inc., Gilbertsville, Pa.).
# [3] = tested on: transcription factor AP-1; experiment: Electrophoretic mobility shift assay (EMSA) for AP-1 activation in primary rat neurons / cortical cultures; format: cell-based
# Protocol: Nuclear extracts for electrophoretic mobility shift assays (EMSAs) were prepared as described previously (Adams et al., J. Leukocyte Biol., 62: 865-873 (1997)) using 1.0-2.0×10^7 cells per sample. All buffers were freshly supplemented with dithiothreitol (DTT, 0.5 mM), protease inhibitors: PMSF (0.5 mM), chymostatin, peptstatin-A, aprotinin, antipain, leupeptin (each at 1 μg/ml), and phosphatase inhibitors: NaF (10 mM), ZnCl2 (1 mM), sodium orthovanadate (1 mM), and sodium pyrophosphate (5 mM). Aliquots of the final dialyzates were stored at −80° C. and discarded after use.
# AP-1 transcription factor activation was assayed using an electrophoretic mobility shift assay (EMSA), as described by Adams et al., J. Leukoc. Biol., 62:865-873 (1997)). Cultures of primary rat neurons (Cornell-Bell et al., Cell Calcium, 12: 185-204 (1991)) were stimulated for 3 hours with various concentrations (0, 1, 10, 100 ng/ml) of peptide CMX-9236. Nuclear extracts prepared as described above were separated by gel electophoresis on non-denaturing gels and subjected to the EMSA procedure. This EMSA used an AP-1 synthetic duplex probe (Angel, P., 1987, Cell 49:729-739) having the sequence 5′-[…] (SEQ ID NO:33) and its antisense copy (complement strand), which were end-labeled with P^32 using polynucleotide kinase and (γ-P^32)-ATP. For the EMSA reaction, the labeled probe (0.5 pmol) was mixed with 3 μg of nuclear extract protein in a solution containing 10 mM Tris-HCl, pH 7.5, 50 mM NaCl, 1 mM EDTA, 1 mM dithiothreitol, 5% glycerol, 0.02% β-mercaptoethanol, and 1 μg of poly-dI/dC (Pharmacia). Reaction mixtures were incubated at 25° C. for 20 minutes to allow complete complex formation by the duplex with its appropriate AP-1 protein. The mixture was then electrophoresed under non-denaturing conditions through 4% polyacrylamide gels in 0.5×TBE buffer (45 mM Trisma base, 45 mM boric acid, 1 mM EDTA). The gels were dried on 3 mm paper. Bands were visualized by autoradiography at −80° C. with one intensifying screen and quantified by laser densitometry. The upregulation of AP-1 and the activation and upregulation process of AP-1 was compared to control cultures.
# Primary cortical cell cultures were grown to confluence and used in in vitro cultures for determining the effects of various representative peptide compounds on upregulation of AP-1. […] Extracts were prepared from the nuclei isolated from the primary culture homogenates, purified, and analyzed for the presence of specific transcription factors using the electrophoretic mobility shift assay (EMSA) method. The binding of ^32P-labeled duplex DNA probes specific for activator protein-1 (AP-1) or nuclear factor κB (NF-κB) was analyzed and quantified by autoradiography. After a 3-hour incubation of the cultures with 1 ng/ml of the peptide CMX-9236 there was a 15-fold increase of AP-1 relative to […] control cultures. […] Thus, a small peptide compound that is less than 20 amino acids long can simulate the properties of large growth factors such as NGF and BDNF, which exist as dimers of protein chains with molecular weights of 13,259 and 13,500, respectively.
# [4] = tested on: middle cerebral artery (MCA) permanent occlusion stroke model; experiment: Permanent MCA 24-hour occlusion stroke model; format: in vivo, Sprague-Dawley rats
# [5] = five hours, doses 1, 10, 100 ng/ml
substance,measurement,setting,value
Asp Gly [CMX-1152],SOD,[1]; Dose 6.7 pmol/ml,2143 % Control
same,SOD Upregulation,[1]; Dose 1 ng/ml,170 % Control
same,SOD Upregulation,[1]; Dose 10 ng/ml,330 % Control
same,SOD Upregulation,[1]; Dose 100 ng/ml,420 % Control
same,SOD Activity,[2]; Brain,520 % of Control
same,SOD Activity,[2]; Heart,550 % of Control
same,SOD Activity,[2]; Kidney,200 % of Control
same,SOD Activity,[2]; Liver,200 % of Control
same,SOD Activity,[2]; Lung,520 % of Control
same,SOD Activity,[2]; Plasma,420 % of Control
same,SOD Activity,[2]; Whole Blood,490 % of Control
same,upregulation in SOD production relative to control,"[2]; brain, heart, lung, and blood",four to five-fold
same,upregulation in SOD production relative to control,[2]; liver and kidney,approximately two-fold
Asp Gly [CMX-99672],increase in SOD,[1]; [5],approximately 30 fold
same,increase in SOD-related protein,[1]; [5],~20 fold
same,upregulation of CAT (in words),catalase (CAT) protein; [5],Comparable data was obtained for CAT
KKDGDGDFA [CMX-9902],upregulation of SOD proteins (in words),[1]; culture in vitro studies,upregulated SOD proteins
same,activation / upregulation of AP-1 (in words),[3],increased nuclear migration of AP-1
same,Percent Neurological Rescue,[4]; Dose 0.05 mg/hr,35 ± 12%
same,Percent Rescue (percent decrease in infarct size vs vehicle controls),[4]; Dose 0.05 mg/hr,29 ± 7%
KKQTLQFR,SOD,[1]; Dose 95 pmol/ml,350 % Control
same,CAT,catalase (CAT) protein; Dose 95 pmol/ml,400 % Control
[Ac] Asp Gly Asp Gly Phe Ala (Ac-DGDGFA) [CMX-99655],SOD,[1]; Dose 8 pmol/ml,750 % Control
same,CAT,catalase (CAT) protein; Dose 8 pmol/ml,520 % Control
[Ac] Thr Val Ser [CMX-99647],SOD,[1]; Dose 6.7 pmol/ml,2066 % Control
[DHA]-Lys Lys Asp Gly Asp Gly Asp Phe Ala Ile Asp Ala Pro Glu [CMX-9236D],Percent Neurological Rescue,[4]; Dose 0.03 mg/hr,50 ± 18%
same,Percent Rescue (percent decrease in infarct size vs vehicle controls),[4]; Dose 0.03 mg/hr,48 ± 12%
[Gga] Asp Gly Asp Gly Phe Ala (Gga-DGDGFA; not fully specified; printed as [Gga] Asp Gly Asp Gly Phe Ala; reading uncertain) [CMX-99661],SOD,[1]; Dose 6.7 pmol/ml,463 % Control
[Palm] Asp Gly Asp Gly Phe Ala (Palmitoyl-DGDGFA) [CMX-9960],SOD,[1]; Dose 6.7 pmol/ml,527 % Control
